Laboratory results published in US7851142B2, “Method of reducing glycolysis in platelet concentrates using L-carnitine, alkanoyl carnitines and salts thereof” (priority 1997, dated 2010).
“Also recorded” adds a separate entry of the source.

Assays:
[1] = test system: packed RBC (red cell concentrates); test: In vitro measurements on red cell concentrates stored in AS-3 with or without LC; assay type: cell-based, human; details: AS-3 with 5 mM LC
Method: Blood storage system. Standard CP2D/AS-3 system (Miles, Inc.) Using polyvinyl chloride (PVC) plastic with diethyl-(n)hexyl-phthalate (DEHP) as plasticizer was used. For each test unit, 245 mg LC (in 1.1 mL pure, pyrogen-free solution in a sterilized glass bottle) was added to the container holding the AS-3 additive solution to give a final concentration of 5 mM. For the control units, 1.1 mL 0.9% NaCl was added to the AS-3 solution using the same conditions. Addition of LC or saline to the bags was performed by injecting through a sampling site coupler with a syringe. This was done in a laminar flow hood under UV light.
Donation & Processing. Standard phlebotomy and blood-drawing methods were used with collection of approximately 450±50 mL whole blood. The whole blood unit was held between 4-8 hours at room temperature before processing. The unit was centrifuged using standard conditions and, after centrifugation, the supernatant plasma was expressed off, and the sedimented packed RBC resuspended either in the standard AS-3 solution (control) or the carnitine-containing AS-3 solution (test). The suspended RBC units were stored at 4° C. for 42 days.
In Vitro Measurements: Measurements performed on pre-(0 day) and post-(42-day) samples included RBC ATP levels; total and supernatant hemoglobin; hematocrit (Hct); RBC, WBC, and platelet counts; RBC osmotic fragility; RBC morphology; lactate and glucose levels; supernatant potassium levels. These were performed using standard procedures as described previously, Heaton et al., Vox Sang 57:37-42 (1989).
Statistical analysis. Paired t-test or routine non-parametric statistical analysis was performed on data from the in vivo and in vitro testing of the units to determine if there were any statistically significant differences (1-tail) in the means between the test and control units. Statistical significance was considered at a p value less than 0.05.

transfused stored RBC = test: In vivo post-transfusion measurements of 42-day stored RBC (51Cr/99Tc labeling); set-up: species or system human; details: RBC stored 42 days with 5 mM LC, reinfused into donor
Description: Subjects. The subject population was male or female research subjects between the ages of 18 to 65 years with no known mental or physical disability and taking no drugs that might affect RBC viability. Individuals were recruited who fulfilled the conventional allogeneic donor criteria as listed in the Code of Federal Register, Chapter 2, the Standards of the American Association of Blood Banks, and the Blood Services Directives of the American National Red Cross. The study was approved by the Institutional Review Board of the Medical College of Hampton Roads and the subjects gave informed consent prior to participation in the study.
Each donor donated on two different occasions separated by 72 days, and was randomized to either the test or control arm on the first donation.
In vivo Post-transfusion Measurements. After 42 days of storage, a sample was withdrawn and the stored cells labeled with Cr using standard methods. At the same time, to determine RBC mass, a fresh sample was collected from the donor for RBC labeling with 99 Tc. After labeling, 15 μCi ^51Cr-labeled stored cells and 15 μCi ^99Tc-labeled fresh cells were mixed and simultaneously infused. Blood samples (5 mL) were taken after the infusion at various time intervals for up to 35 days to calculate 24-hour % recovery and survival. The 24-hour % recovery was determined using either the single label method where log-linear regression of the radioactivity levels of samples taken at 5, 7.5, 10, and 15 min. was used to determine 0 time level, or by the double label method using donor RBC mass as determined by the ^99Tc measurement.
Circulating lifespan of the transfused surviving Cr-labeled RBC was determined by samples taken at 24 hours and then twice weekly for up to 5 weeks. The radioactivity levels were corrected for a constant 1% elution per day. The data were fitted to a linear function with post-transfusion days as independent variable (x-axis) and the corrected Cr counts as dependent variable (y-axis). The lifespan of the RBC was then taken as the intersection of the fitted line with the x-axis. […]

stored RBC = test: Membrane complex lipid reacylation in stored RBC ([1-14C]palmitic acid incorporation); assay type: cell-based, human
Method: Analysis of membrane complex lipid reacylation in stored RBC. Blood sample was withdrawn from stored RCC unit through a sampling site coupler with a syringe, and the sample processed immediately. This was done in a laminar flow hood under UV light. All the manipulations were conducted at 0-5° C. unless noted. RBC were washed two times with 4 vol. of cold 0.9% NaCl. Isolated RBC were once again washed with incubation buffer (NaCl 120 mM, KCl 5 mM, MgSO4 1 mM, NaH2PO4 1 mM, saccharose 40 mM, 5 mM glucose, Tris-HCl 10 mM, at pH 7.4) and resuspended in the same buffer at a final hematocrit of 5%. A Rotabath shaking bath at 37° C. was used for the incubations. RBC were incubated with the radioactive palmitic acid (10 μM) complexed to fatty acid free BSA (1.65 mg/ml), Incubations were ended by washing cells once with cold incubation buffer, three times with fatty acid free BSA 1% in incubation buffer, and finally once again with incubation buffer. RBC lipids were extracted from intact cells with the Rose & Oaklander procedure, J. Lipid Res. 6: 428-431 (1965). In order to prevent lipid oxidation, 0.1% butylated hydroxytoluene was added to the lipid extracts. Aliquots of the lipid extract were used for determination of lipid phosphorus content, and analyzed by two dimensional thin layer chromatography. Briefly, the chromatograms were developed using chloroform-methanol-28% ammonia (65:25:5) in the first dimension. The chromatograms were then developed using chloroform-acetone-methanol-acetic acid-water (6:8:2:2:1) in the second dimension. Phosphatidylcholine (PC), a phosphatidylethanolamine (PE), and phosphatidylserine were visualized by brief exposure of the plates to iodine and identified using standards as a reference. Individual phospholipid spots were scraped off into vials containing scintillation fluid and radioactivity was determined by liquid scintillation counting. The identification and analysis of radioactive PLC was carried out as recently described, Arduini et al., J. Biol. Chem. 267: 12673-81 (1992). Counting efficiency was evaluated by an external standard. […]

[2] = test system: coagulase negative staphylococci; test: Bacterial growth in spiked extended-storage platelet concentrates; assay type: cell-based; details: for Bacterial growth: platelet concentrate
Method: Study Methods: Two ABO identical prestorage-leuko-reduced platelet concentrates produced by in line filtration of platelet rich plasma (MedSep Corp. Covina, Calif.) were pooled, then equally divided into two CLX® (MedSep) bags. Either LC, to a final concentration of 5 mM, or saline (control) was added to one of each pair. Each container was spiked with 1 ml of a coagulase negative staphylococcal suspension on Day 0 to a final concentration between 1-48 CFU/mL. Samples were removed from each container aseptically on Day 3, Day 6 and either Day 7 or Day 8 for colony count. Data were analyzed by paired t tests.

[3] = test system: prestorage-leuko-reduced platelet concentrates; test: Extended storage of prestorage-leuko-reduced random platelets (glycolysis and platelet quality tests); assay type: cell-based, human; details: 5 mM L-Carnitine, stored seven or eight days at 22° C.
Method: Study Deign: Two ABO identical prestorage-leuko-reduced platelet concentrates produced by in-line filtration of platelet rich plasma (MedSep Inc., Corvina, Calif.) were pooled, then equally divided into two CLX (MedSep) containers. Either L-Carnitine (final concentration 5 mM) or saline was added to one bag of each pair of platelets. Platelets were stored for either seven or eight days at 22° C. on a flatbed agitator, then tested. Tests performed were pH, platelet count, supernatant glucose and lactate, surface p-selectin expression by flow cytometry, extent of shape change (ESC) and hypotonic shock response (HSR). Glucose consumption and lactate production were calculated as mM/10^12 platelets/day. Data were analyzed using paired t-tests.

[4] = test system: standard (non-leuko-reduced) platelet concentrates; details: extended storage (>5 days; five-ten days); cited from earlier work

## C[N+](C)(C)C[C@H](O)CC(=O)[O-] [L-Carnitine, L-carnitine]
[1]; post-storage, 42 days at 4° C.
  ATP: 3.24 ± 0.38 μmol/g Hb
  Glucose: 193 ± 40 mg/dL
  Hemolysis: 0.30 ± 0.22 %
  Lactate: 199 ± 37 mg/dL
  Morphological Score: 68 ± 15
  Osmotic Fragility: 50 ± 4%
  Supernatant K+: 60 ± 3 mEq/L
  pH: 6.32 ± 0.04
[1]; pre-storage (0 day)
  ATP: 4.3 ± 0.4 μmol/g Hb
  Osmotic Fragility: 49 ± 4%
  Supernatant Hb: 26 ± 8 mg/dL
  Supernatant K+: 2.2 ± 0.3 mEq/L
Transfused stored RBC
  24 Hr % Recovery (single label): 84.0 ± 4.4%
  24 Hr Recovery (double label): 83.9 ± 5.0
  Survival (circulating lifespan of infused stored RBC): 96.1 ± 11.2 days
Stored RBC; RBC stored in LC-containing AS-3, over storage up to 42 days
  Radioactive palmitate incorporation into membrane PE: sudden increase of PE reacylation toward the end of the storage
Stored RBC; RBC stored in LC-containing AS-3, over storage up to 42 days, listed as LC
  Radioactive palmitate incorporated into PLC (palmitoyl-L-carnitine): initial increase (with a nadir at the 3 week) followed by a rapid decrease; also recorded: greater than that found in red cells stored without LC
Stored RBC; RBC stored in LC-containing AS-3 vs AS-3 alone, over storage
  Radioactive palmitate incorporation into membrane PC: no differences were observed between the two red cell preparations
[2]; Day 0, 5 mM L-Carnitine
  Bacterial growth: 1.12 ± 0.7 Log CFU/ml
[2]; Day 3, 5 mM L-Carnitine
  Bacterial growth: 3.04 ± 0.7 Log CFU/ml
[2]; Day 6, 5 mM L-Carnitine
  Bacterial growth: 3.88 ± 1.0 Log CFU/ml
[2]; Day 7/8, 5 mM L-Carnitine
  Growth relative to controls: 33%
  Bacterial growth: 4.60 ± 1.5 Log CFU/ml
[3]
  ESC (extent of shape change): 12 ± 4%
  Glucose concentration: 1.13 ± 0.2
  HSR (hypotonic shock response): 50 ± 22%
  Lactate production: 1.50 ± 0.2 mM/10^12 platelets/day
  pH: 7.09 ± 0.1
[3]; flow cytometry
  P-selectin (% positive): 69 ± 9%
[4]
  Effect on glycolysis in stored platelet concentrates: reduces glycosis; also recorded: reduces glycolysis
